Laboratory results published in the NIST ThermoML archive (doi:10.1016/j.jct.2011.05.028).
Several values for one entry are separate records, joined by “and”; a condition that tells them apart may be missing. Equal entries are not always repeated.

Details: Liquid, Transpiration method

CCOCCN=[N+]=[N-] [(azidoethoxy)ethane]
Details | vapor or sublimation pressure [kPa]
274.1 K | 0.2423
275.7 K | 0.2804
277.1 K | 0.3181
277.9 K | 0.3191
278.7 K | 0.3325
279.4 K | 0.3333
280.2 K | 0.3892
281.5 K | 0.4113
282.4 K | 0.4364
283.2 K | 0.4705
284.8 K | 0.5331
286.2 K | 0.5994
287.8 K | 0.6765
289.2 K | 0.7246
290.7 K | 0.7842
292.2 K | 0.8444
292.3 K | 0.8535
293.7 K | 0.9715
295.2 K | 1.061
296.7 K | 1.173
298.2 K | 1.313
300.7 K | 1.55

CC(=O)OC1CCCC1 [cyclopentyl ethanoate]
Details | vapor or sublimation pressure [kPa]
274.1 K | 0.0795
276.1 K | 0.0894
278.2 K | 0.1067
281.3 K | 0.1295
283.2 K | 0.1597
286.3 K | 0.1983
288.4 K | 0.2248
291.2 K | 0.278
293.2 K | 0.3029
296.4 K | 0.4022
298.2 K | 0.4443
303.2 K | 0.6114
308.4 K | 0.8519

CCOC(=O)CN=[N+]=[N-] [ethyl azidoacetate]
Details | vapor or sublimation pressure [kPa]
301.4 K | 0.1784
304.8 K | 0.2378
308.3 K | 0.3083
314.3 K | 0.4549
320.2 K | 0.6452
323.2 K | 0.7874
326.2 K | 0.9687
332.2 K | 1.38
338.1 K | 1.929
341.1 K | 2.397
344.3 K | 2.714

[N-]=[N+]=NC1CCCCC1 [azidocyclohexane]
Details | vapor or sublimation pressure [kPa]
279.6 K | 0.0856
281.6 K | 0.1002
283.4 K | 0.1159
285.3 K | 0.1366
286.6 K | 0.1432
287.2 K | 0.1571
288.9 K | 0.1754
290.2 K | 0.1885
291.9 K | 0.2153
293.2 K | 0.231
295.5 K | 0.2749
297.1 K | 0.3013
298.3 K | 0.3332
300.1 K | 0.3875
301.3 K | 0.3917
303.1 K | 0.4574

[N-]=[N+]=NCSc1ccccc1 [azidomethyl phenyl sulfide]
Details | vapor or sublimation pressure [kPa]
299.6 K | 0.00448
303.5 K | 0.0064
307.3 K | 0.00918
310.3 K | 0.01158
313.3 K | 0.01502
316.2 K | 0.01866
319.2 K | 0.02463
324.2 K | 0.03511

[N-]=[N+]=NC1CCCC1 [cyclopentyl azide]
Details | vapor or sublimation pressure
275.5 K | 0.3701 kPa
279.2 K | 0.4454 kPa
281.3 K | 0.48 kPa
283.2 K | 0.5664 kPa
285.3 K | 0.6268 kPa
287 K | 0.722 kPa
288.7 K | 0.7419 kPa
291.1 K | 0.8591 kPa
293 K | 0.9879 kPa and 0.9833 kPa
295.1 K | 1.102 kPa
295.8 K | 1.1 kPa
297.2 K | 1.342 kPa
298.5 K | 1.418 kPa
299.1 K | 1.45 kPa
300.8 K | 1.466 kPa
301.1 K | 1.615 kPa
303.1 K | 1.88 kPa
303.3 K | 1.899 kPa
305.8 K | 1.953 kPa
306.1 K | 2.066 kPa
308.2 K | 2.239 kPa
310.7 K | 2.494 kPa
313.3 K | 2.898 kPa
317.9 K | 3.913 kPa
323.1 K | 4.896 kPa
327.7 K | 5.951 kPa
333.4 K | 7.854 kPa

[N-]=[N+]=NCCO [2-azidoethanol]
Details | vapor or sublimation pressure [kPa]
284.6 K | 0.021
287.3 K | 0.0267
288.8 K | 0.0298
291.8 K | 0.0398
294.8 K | 0.052
297.7 K | 0.0664
300.7 K | 0.088
303.6 K | 0.1076
306.6 K | 0.1398
309 K | 0.1676
309.6 K | 0.1718
312 K | 0.2073
312.6 K | 0.2168
316 K | 0.2782
316.1 K | 0.2882
